This assay deals with B16F10 cells. As to the kind of experiment: H2O2 treatment, MTT cell viability assay. The assay is classed as cell-based, murine. The settings on record: compared with the other cell lines, FIG. 7B. On the procedure: Cell cultures. The experiment investigated 10 cancer cell lines, which include many representative cell lines in plasma medicine. Human pancreas ductal adenocarcinoma cell line (PANC-1) was purchased from American Type Culture Collection (ATCC). Other cell lines were donated by several labs at the George Washington University. These cells were all purchased from ATCC by the different labs. Human pancreatic adenocarcinoma cell line (PA-TU-8988T), human glioblastoma cell line (U87MG), as well as human lung carcinoma cell line (A549) were provided by Dr. Murad's lab. Human breast cancer cell lines (MDA-MB-231, MCF-7) were provided by Dr. Zhang's lab. Human ovarian carcinoma cell line (SK-OV-3), human ovarian carcinoma cell line (IGROV-1), human colorectal carcinoma cell line (HCT116), as well as human bone osteosarcoma cell line (U-2 OS) were provided by Dr. Zhu's lab. Murine melanoma cell line (B16F10) was provided by Dr. Sotomayor's lab. […]
Cell viability assay. […] The absorbance at 570 nm was measured by a H1 microplate reader (Hybrid Technology). The measured absorbance was processed to be a relative cell viability by the division between the data of the experimental group and the control group.
A general note: Formazan colour is commonly taken as a measure of viable cells.

Turning to `OO` [H2O2], the “resistance to H2O2 treatment” value is “strongest resistance to H2O2 treatment”.

These data come from patent US20190231411A1, “METHOD FOR PREDICTING CYTOTOXICITY OF COLD ATMOSPHERIC PLASMA TREATMENT ON CANCER CELLS” (U.S. Patent Innovations, LLC, priority 2018, published 2019).
